From patent US8993585B2, “Cyclic amine substituted pyrimidinediamines as PKC inhibitors” (Rigel Pharmaceuticals, Inc., priority 2007, dated 2015)

Tested on: Human primary T cells
Experiment: IL-2 ELISA, Human Primary T Cell, Anti-CD3+CD28+ (Example 3)
Assay type: cell-based
Details: anti-CD3+CD28 stimulation
Summary of the method: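 IL-2 was read by ELISA after stimulation on wells pre-coated with 1 ug/ml αCD3 and 5 μg/ml αCD28. Before this, 100,000 human primary T cells per well spent 1 h at 37 °C with test compound in Yssel's medium. The counter-screen replaced antibody stimulation with PMA (0.5 ng/ml final) and ionomycin (0.1 uM final).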

| SMILES | IC50 (24 hours) [µM] | IC50 (Homo sapiens, T-cell, 24 h) [µM] |
| --- | --- | --- |
| CCc1cc(Nc2ncc(F)c(NC3CC(C)(C)N(C)C(C)(C)C3)n2)cc(C#N)c1Cl [Compound I-128] | 0.876 | – |
| CN1C(C)(C)CC(Nc2nc(Nc3ccc4c(c3)OCCO4)ncc2C#N)CC1(C)C [II-60] | 0.717 | – |
| COc1cc(Nc2ncc(Cl)c(NC3CC(C)(C)N(C)C(C)(C)C3)n2)ccc1NC(=O)c1ccco1 [Compound I-352] | 1.07 | – |
| CCOC(=O)c1cnc(Nc2ccc(N3CCN(S(C)(=O)=O)CC3)c(Cl)c2)nc1NC1CC(C)(C)N(C)C(C)(C)C1 [Compound I-84] | 6.85 | – |
| CN1C(C)(C)CC(Nc2nc(Nc3cccc(OC(F)(F)F)c3)ncc2F)C1(C)C (stereo not drawn) [Compound I-284, 5-Fluoro-N2-(3-trifluoromethoxy)phenyl-N4-(1,2,2,5,5-pentamethylpyrrolidin-3-yl)-2,4-pyrimidinediamine] | 3.04 | – |
| CN1C(C)(C)CC(Nc2nc(Nc3ccc(S(=O)(=O)N4CCNCC4)c(Cl)c3)ncc2F)CC1(C)C [Compound I-46] | 14.3 | – |
| CN1CCN(c2ccc(Nc3ncc(Cl)c(NC4CC(C)(C)N(C)C(C)(C)C4)n3)cc2Cl)CC1 [Compound I-36] | 0.083 | – |
| CN1C(C)(C)CC(Nc2nc(Nc3cc(F)cc(F)c3)ncc2F)CC1(C)C [Compound I-354] | 0.595 | – |
| COc1ccc(Nc2ncc(F)c(NC3CC(C)(C)N(C)C(C)(C)C3)n2)cc1OCc1cccnc1 [Compound I-418] | 2.19 | – |
| CN1CCN(c2ccc(Nc3ncc(F)c(NC4CC(C)(C)N(C)C4(C)C)n3)cc2C(F)(F)F)CC1 (stereo not drawn) [Compound I-285, 5-Fluoro-N2-[4-(4-methylpiperazin-1-yl)-3-(trifluoromethyl)]phenyl-N4-(1,2,2,5,5-pentamethylpyrrolidin-3-yl)-2,4-pyrimidinediamine] | 1.23 | – |
| Cc1ccc(Nc2ncc(F)c(NC3CCC(C)(C)N(C)C(C)(C)C3)n2)cc1C#N (stereo not drawn) [Compound I-263, 5-Fluoro-N2-[4-(methyl)-3-cyano]phenyl-N4-(1,2,2,7,7-pentamethylazepan-4-yl)-2,4-pyrimidinediamine] | 10.9 | – |
| CSc1nnnn1-c1cccc(Nc2ncc(C#N)c(NC3CC(C)(C)N(C)C(C)(C)C3)n2)c1 [Compound I-464] | 0.18 | – |
| CN1C(C)(C)CC(Nc2nc(Nc3ccc(OC(F)(F)F)cc3)ncc2F)CC1(C)C [Compound I-231] | – | 1.75 |
| COc1cc(Nc2ncc(C)c(NC3CC(C)(C)N(C)C(C)(C)C3)n2)cc(OC)c1 [Compound I-425] | – | 1.14 |
| CN1C(C)(C)CC(Nc2ccnc(Nc3ccc(N4CCN(S(C)(=O)=O)CC4)c(C(F)(F)F)c3)n2)CC1(C)C [Compound I-228] | 0.72 | – |
| COc1ccc(Nc2ncc(F)c(NC3CC(C)(C)N(C)C(C)(C)C3)n2)cc1OCc1ccncc1 [Compound I-417] | 2.67 | – |
| CCN1CCN(c2cc(Nc3ncc(F)c(NC4CC(C)(C)N(C)C(C)(C)C4)n3)ccc2Cl)CC1 [Compound I-41] | 2.63 | – |
| CN1C(C)(C)CC(Nc2nc(Nc3ccc(Cl)c(Cl)c3)ncc2F)CC1(C)C [Compound I-336] | 2.04 | – |
| CCCN1CCN(c2cc(Nc3ncc(F)c(NC4CC(C)(C)N(C)C(C)(C)C4)n3)ccc2Cl)CC1 [Compound I-56] | 2.38 | – |
| COC(=O)CCN1C(C)(C)CC(Nc2nc(Nc3ccc(OC)c(Cl)c3)ncc2F)CC1(C)C [Compound I-293] | – | 2.19 |
| CN1C(C)(C)CC(Nc2nc(Nc3ccc(N4CCOCC4)c(Cl)c3)ncc2F)CC1(C)C [Compound I-335] | 0.563 | – |
| CN1CCN(c2ccc(Nc3ncc(F)c(N(C)C4CC(C)(C)N(C)C(C)(C)C4)n3)cc2C(F)(F)F)CC1 [Compound I-59] | 0.911 | – |

Continued, values first:

| IC50 (24 hours) [µM] | IC50 (Homo sapiens, T-cell, 24 h) [µM] | SMILES |
| --- | --- | --- |
| – | 11.1 | Cc1nc2cc(Nc3ncc(F)c(NC4CC(C)(C)N(C)C(C)(C)C4)n3)ccc2o1 [II-30] |
| – | 7.24 | COC(=O)CCN1C(C)(C)CC(Nc2nc(Nc3ccc4c(c3)OCCO4)ncc2F)CC1(C)C [II-10] |
| – | 1.61 | CN1C(C)(C)CC(Nc2nc(Nc3ccc4cnn(C)c4c3)ncc2F)CC1(C)C [II-41] |
| – | 2.94 | CCn1c(=O)oc2ccc(Nc3ncc(F)c(NC4CC(C)(C)NC(C)(C)C4)n3)cc21 [II-174] |
| – | 1.35 | CC1(C)CC(Nc2nc(Nc3ccc4c(c3)OC3(CCCC3)O4)ncc2F)CC(C)(C)N1 [II-120] |
| – | 1.24 | CN(C)CCN1C(=O)C(C)(C)Oc2cc(Nc3ncc(F)c(NC4CC(C)(C)N(C)C(C)(C)C4)n3)ccc21 [II-49] |
| 2.22 | – | COc1cc(Nc2ncc(F)c(NC3CCN(Cc4ccncc4)CC3)n2)cc(-n2nnnc2C)c1 [III-10, 5-fluoro-N2-[3-methoxy-5-(5-methyl-1H-tetrazol-1-yl)]phenyl-N4-[1-(pyridin-4-yl)methylpiperidin-4-yl]-2,4-pyrimidinediamine] |
| – | 0.951 | CN1C(=O)C(F)(F)Oc2cc(Nc3ncc(F)c(NC4CC(C)(C)N(C)C(C)(C)C4)n3)cnc21 [II-26] |
| – | 2.48 | CN1C(C)(C)CC(N(Cc2ccc(-c3ccccc3)cc2)c2nc(Nc3ccc4c(c3)OCCO4)ncc2F)CC1(C)C [II-88] |
| – | 2.07 | CN1C(C)(C)CC(Nc2nc(Nc3cnc4c(c3)OC(F)(F)C(=O)N4)ncc2F)CC1(C)C [II-25] |
| 0.261 | – | CN1C(=O)C2(CCC2)Oc2cc(Nc3ncc(F)c(NC4CC(C)(C)N(C)C(C)(C)C4)n3)ccc21 [II-68] |
